Test results as given in ChEMBL document CHEMBL5104193, “Hypoxia-Activated Prodrugs with Dual COX-2/CA Inhibitory Effects on Attenuating Cardiac Inflammation under Hypoxia” (J Med Chem, 2022).
Each block holds one compound with its values, some of them ahead of it. The source made the active and inactive calls. The rule behind the calls is not given here.

How the values were obtained:
H9c2 [1] = test: Protection against LPS induced cell injury in rat H9c2 cells assessed as increase in cell viability under hypoxic condition at 0.001 to 10 uM by CCK-8 assay; type: functional, cell-based; conditions: dose 0.001-10 µM
[2] = Inhibition of Carbonic anhydrase (unknown origin); set-up: species or system Homo sapiens
Rattus norvegicus [3] = test: Antiinflammatory activity in LPS/talc powder induced pericarditic Wistar rat assessed as increase in CK-MB level in serum at 20 mg/kg, ip pretreated for 2 hrs followed by LPS/tal powder stimulation measured after 48 hrs in presence of indomethacin (reference value: 4140+/-256.23 U/L); type: functional; conditions: time 50 hrs
H9c2 [4] = test: Inhibition of intracellular ROS level in LPS/hypoxia induced rat H9c2 cells in presence of indomethacin and Na2WO4 by DCFH-DA probe based fluorescence confocal microscopy analysis; type: functional, cell-based
Rattus norvegicus [5] = test: Antiinflammatory activity against LPS/talc powder induced pericarditic Wistar rat assessed as elimination of pericardial effusion at 20 mg/kg, ip pretreated for 2 hrs followed by LPS/tal powder stimulation measured after 48 hrs in presence of indomethacin; type: functional, organism-based; conditions: time 50.0 hrs
H9c2 [6] = test: Anti-inflammatory activity in rat H9c2 cells assessed as inhibition of endogenous IL-6 protein expression in presence of indomethacin by DAPI staining based immunofluorescence analysis; type: functional, cell-based
H9c2 [7] = test: Reversal of ATP level in LPS/hypoxia induced rat H9c2 cells in presence of indomethacin by multimode plate reader analysis (reference value: 21.37 nmol/mg); type: functional
Rattus norvegicus [8] = test: Antiinflammatory activity against LPS/talc powder induced pericarditic Wistar rat assessed as reduction in torsion T wave inversion at 20 mg/kg, ip pretreated for 2 hrs followed by LPS/tal powder stimulation measured after 48 hrs in presence of indomethacin by ECG analysis; type: functional, organism-based; conditions: time 50.0 hrs
Rattus norvegicus [9] = test: Antiinflammatory activity against LPS/talc powder induced pericarditic Wistar rat assessed as reduction in heart swelling at 20 mg/kg, ip pretreated for 2 hrs followed by LPS/tal powder stimulation measured after 48 hrs in presence of indomethacin; type: functional, organism-based; conditions: time 50.0 hrs
H9c2 [10] = test: Protection against LPS/hypoxia induced cell injury in rat H9c2 cells assessed as recovery of cell viability in presence of indomethacin by CCK-8 assay (reference value: 69.0%); type: functional
NTR = test: Stability of the compound assessed as NTR (unknown origin) mediated hydrolysis by measuring half life by UV spectrophotometry; type: ADME; conditions: human, NTR enzyme
Rattus norvegicus [11] = test: Antiinflammatory activity in LPS/talc powder induced pericarditic Wistar rat assessed as increase in cTNI level in serum at 20 mg/kg, ip pretreated for 2 hrs followed by LPS/tal powder stimulation measured after 48 hrs in presence of indomethacin (reference value: 0.167+/-0.025 ng/ml); type: functional; conditions: time 50 hrs
H9c2 [12] = test: Protection against LPS/hypoxia induced apoptosis in rat H9c2 cells assessed as reduction in green fluorescence in presence of indomethacin by confocal microscopy analysis; type: functional, cell-based
H9c2 [13] = test: Anti-inflammatory activity in LPS/hypoxia induced rat H9c2 cells assessed as increase in VEGF expression at 10 uM in presence of indomethacin by Western blot analysis; type: functional, cell-based
H9c2 [14] = test: Anti-inflammatory activity in rat H9c2 cells assessed as downregulation of cytochrome C expression at 10 uM by Western blot analysis; type: functional, cell-based
H9c2 [15] = test: Protection against LPS/hypoxia induced apoptosis in rat H9c2 cells assessed as reduction in red fluorescence in presence of indomethacin by confocal microscopy analysis; type: functional, cell-based
[16] = Toxicity in Wistar rat assessed as change in CRE level in presence of indomethacin; conditions: in vivo
H9c2 [17] = test: Protection against LPS/hypoxia induced cell injury in rat H9c2 cells assessed as recovery of cell viability in presence of indomethacin and Na2WO4 by CCK-8 assay; type: functional, cell-based
H9c2 [18] = test: Anti-inflammatory activity in LPS/hypoxia induced rat H9c2 cells assessed as reduction of IL-6 protein expression at 10 uM in presence of indomethacin by Western blot analysis; type: functional, cell-based
H9c2 [19] = test: Anti-inflammatory activity in LPS/hypoxia induced rat H9c2 cells assessed as reduction of TNF-alpha protein expression at 10 uM in presence of indomethacin by Western blot analysis; type: functional, cell-based
H9c2 [20] = test: Inhibition of intracellular ROS level in LPS/hypoxia induced rat H9c2 cells in presence of indomethacin by DCFH-DA probe based fluorescence confocal microscopy analysis; type: functional, cell-based
H9c2 [21] = test: Anti-inflammatory activity in LPS/hypoxia induced cell injury in rat H9c2 cells assessed as reduction of IL-1beta protein expression at 10 uM in presence of indomethacin by Western blot analysis; type: functional, cell-based
[22] = Toxicity in Wistar rat assessed as change in BUN level in presence of indomethacin; conditions: in vivo
H9c2 [23] = test: Reversal of ATP level in LPS/hypoxia induced rat H9c2 cells in presence of indomethacin and Na2WO4 by multimode plate reader analysis; type: functional, cell-based
H9c2 [24] = test: Protection against LPS/hypoxia induced apoptosis in rat H9c2 cells assessed as reduction in red fluorescence by confocal microscopy analysis; type: functional, cell-based
H9c2 [25] = test: Protection against LPS/hypoxia induced apoptosis in rat H9c2 cells assessed as reduction in necrotic cells at 10 umol/L incubated for 4 hrs under hypoxia condition in presence of Indomethacin by AnnexinV-FITC/propidium iodide staining based flow cytometry analysis (reference value: 31.02%); type: functional; set-up: scale not given: the % may be the effect or the level left; conditions: dose 10 µmol/L, at 10 µM
Rattus norvegicus [26] = test: Antiinflammatory activity against LPS/talc powder induced pericarditic Wistar rat assessed as reduction in U wave flattening at 20 mg/kg, ip pretreated for 2 hrs followed by LPS/tal powder stimulation measured after 48 hrs in presence of indomethacin by ECG analysis; type: functional, organism-based; conditions: time 50.0 hrs
[27] = Toxicity in Wistar rat assessed as change in ALT level in presence of indomethacin; conditions: in vivo
H9c2 [28] = test: Reversal of LPS/hypoxia induced mitochondrial membrane potential loss in rat H9c2 cells assessed as increase in JC-1 polymer morphology in presence of indomethacin by JC-1 dye based flow cytometry analysis; type: functional, cell-based; conditions: time 20.0 min
H9c2 [29] = test: Anti-inflammatory activity in rat H9c2 cells assessed as downregulation of cytochrome C expression at 10 uM in presence of indomethacin by Western blot analysis; type: functional, cell-based
H9c2 [30] = test: Protection against LPS/hypoxia induced apoptosis in rat H9c2 cells assessed as reduction in necrotic cells at 10 umol/L incubated for 4 hrs under hypoxia condition by AnnexinV-FITC/propidium iodide staining based flow cytometry analysis (reference value: 31.02%); type: functional; set-up: scale not given: the % may be the effect or the level left; conditions: dose 10 µmol/L, at 10 µM
H9c2 [31] = test: Reversal of LPS/hypoxia induced mitochondrial membrane potential loss in rat H9c2 cells in presence of indomethacin by JC-1 dye based flow cytometry analysis; type: functional, cell-based

Structure (SMILES): COc1ccc2cc([C@H](C)C(=O)OCc3cc(C)cc(COC(=O)NCCc4ccc(S(N)(=O)=O)cc4)c3OCc3ccc([N+](=O)[O-])cc3)ccc2c1
Activity (H9c2 [1]): Active

Structure (SMILES): Cc1cc(CO)c(OCc2ccc([N+](=O)[O-])cc2)c(COC(=O)Cn2cc(CCCCC(=O)Nc3nnc(S(N)(=O)=O)s3)nn2)c1
Activity (H9c2 [1]): Active

IC50 [2]: 9.2 µM
Structure (SMILES): NS(=O)(=O)c1ccccc1 [BENZENESULFONAMIDE]

half-life (NTR): 8.3 min
Structure (SMILES): NS(=O)(=O)c1nnc(NC(=O)CCCCc2cn(CC(=O)O)nn2)s1
Activity (Rattus norvegicus [3]): 2620 U/L
inhibition (H9c2 [4]): Active
Activity (Rattus norvegicus [5]): Active
Activity (H9c2 [6]): Active
Activity (H9c2 [7]): 47.52 nmol/mg
Activity (Rattus norvegicus [8]): Active
Activity (Rattus norvegicus [9]): Active
Activity (H9c2 [10]): 91.8%
Activity (Rattus norvegicus [11]): 0.121 ng/mL
Activity (H9c2 [12]): Active
Activity (H9c2 [13]): Active
Activity (H9c2 [14]): Active
Activity (H9c2 [15]): Active
Activity [16]: Toxic
Activity (H9c2 [17]): Active
Activity (H9c2 [18]): Active
Activity (H9c2 [19]): Active
inhibition (H9c2 [20]): Active
Activity (H9c2 [21]): Active
Activity [22]: Toxic
Activity (H9c2 [23]): Active
Activity (H9c2 [24]): Active
Activity (H9c2 [25]): 9.61%
Activity (Rattus norvegicus [26]): Active
Activity [27]: Toxic
Activity (H9c2 [28]): Active
Activity (H9c2 [29]): Active
Activity (H9c2 [30]): 23.78%
Activity (H9c2 [31]): Active
